The text below walks through data of ChEMBL document CHEMBL1201862, “PubChem BioAssay data set” (2004).

Each structure is given as a SMILES string.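 Where inhibition never reached the appropriate level, the endpoint shown equals the highest concentration tested. Otherwise, values were interpolated linearly from a five-concentration, 48-hour dose response in 96-well plates. GI50 marks 50% less growth.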 The source made the active and inactive calls. No stated cut-off is given here; in the data, active = GI50 up to about 1.1 µM and inactive = higher.

Holding throughout (experiment): NCI tumour cell line growth inhibition, 48 h
For test [1], the system named is OVCAR-3.
In test [2] the test system is HCT-15.
Test [3] has as its system SF-268.
For test [4], the system named is NCI-H226.
For test [5], the system named is HOP-62.
In test [6] the test system is TK-10.
In test [7] the test system is MCF7.
Test [8] concerns NCI-H522.
Test [9] has as its system SK-MEL-28.
Test [10] relates to MOLT-4.
Test [11] concerns SF-539.
Test [12] concerns CCRF-CEM.
Test [13] relates to MDA-MB-231.
The subject of test [14] is PC-3.
Test [15] relates to A498.
Test [16] deals with EKVX.
In test [17] the test system is HL-60.
The subject of test [18] is OVCAR-5.
In test [19] the test system is MDA-N.
In test [20] the test system is LOX IMVI.

Turning to `CCOC(=O)c1nc2c(Cl)c3ncccc3cc2[nH]c1=O`, the GI50 in [1] was 26.2 µM (inactive); in test [2] it was 19 µM; in test [3] it was 44.6 µM (inactive); in test [4], 6.71 µM (inactive); in test [5], 25.6 µM (inactive); in test [6], > 100 µM (inactive). Moreover, the GI50 in test [7] is 30.3 µM (inactive); in [8], 34.4 µM (inactive); in test [9] it was 59.3 µM (inactive); in test [10], 10.4 µM (inactive); in test [11], 34.8 µM (inactive); in test [12], 17.5 µM (inactive). Further, the GI50 in test [13] was 18.1 µM (inactive); in test [14], 30.9 µM (inactive); in test [15], 79.6 µM (inactive); in test [16], 9.08 µM (inactive); in [17], 14.2 µM (inactive); in test [18], 61.7 µM (inactive).
With `COC(=O)c1ccc(COC(=O)N2C=CCC2C(=O)O)cc1` (stereo not drawn), the GI50 in [1] was > 100 µM (inactive); in [19], > 100 µM (inactive); in test [2], greater than 100 µM; in test [3] it was > 100 µM (inactive); in test [4] it was > 100 µM (inactive); in test [5], > 100 µM (inactive). Also, the GI50 in test [6], in test [7], in test [8], in test [9], in [10] and in test [11] was > 100 µM (inactive) in each case. Besides, the GI50 in test [13], in test [14] and in test [18] was > 100 µM (inactive) throughout.
For the molecule `COc1ccc(C(C#N)NC23CC4CC(CC(C4)C2)C3)cc1` (stereo not drawn), the GI50 in test [1] was > 100 µM (inactive); in [19], > 100 µM (inactive); in test [2], greater than 100 µM; in test [3], > 100 µM (inactive); in test [20] it was > 100 µM (inactive); in test [4], > 100 µM (inactive). Also, the GI50 in test [5], in [6], in test [7], in [8], in test [9] and in test [10] was > 100 µM (inactive) throughout. In addition, the GI50 in [11] is > 100 µM (inactive); in [12] it was > 100 µM (inactive); in test [13] it was > 100 µM (inactive); in [14], > 100 µM (inactive); in test [16], > 100 µM (inactive); in [17], 88.5 µM (inactive). Also, the GI50 in test [18] was > 100 µM (inactive).
As to `Cc1ccc(C2=C(Cl)C(=O)C(c3ccc(C)cc3)=C(Cl)C2=O)cc1`, the GI50 in test [1] was > 100 µM (inactive); in test [19], > 100 µM (inactive); in test [2] it was greater than 100 µM; in test [3] it was > 100 µM (inactive); in [20], > 100 µM (inactive); in [4], > 100 µM (inactive). Besides, the GI50 in test [5], in test [6], in test [7], in test [8], in [9] and in test [10] was > 100 µM (inactive) throughout. The GI50 in test [11] is > 100 µM (inactive); in [12], 83.4 µM (inactive); in test [14] it was > 100 µM (inactive); in test [15], > 100 µM (inactive); in test [16], > 100 µM (inactive); in test [17], > 100 µM (inactive). Further, the GI50 in [18] is > 100 µM (inactive).
Regarding `CC1=CC(=O)N(n2c(-c3ccccc3)n[nH]c2=O)C1=O`, the GI50 was > 100 µM (inactive) in [1]; greater than 100 µM in test [2]; > 100 µM (inactive) in [3]; > 100 µM (inactive) in test [20]; > 100 µM (inactive) in [4]; > 100 µM (inactive) in [5]. The GI50 in test [6], in [7], in [8], in [9], in [10] and in [11] was > 100 µM (inactive) throughout. Besides, the GI50 is 43.9 µM (inactive) in test [12]; > 100 µM (inactive) in test [13]; > 100 µM (inactive) in test [14]; > 100 µM (inactive) in test [16]; > 100 µM (inactive) in [17]; > 100 µM (inactive) in test [18].
Consider `O=C1O/C(=C\c2ccc(O)c(Br)c2)C(c2ccc(O)cc2)=C1Cl`, for which the GI50 was 27.2 µM (inactive) in [1]; 26.1 µM (inactive) in test [19]; 36.6 µM in test [2]; 27.7 µM (inactive) in [3]; 42.2 µM (inactive) in test [20]; 46.7 µM (inactive) in test [5]. The GI50 was 45.6 µM (inactive) in [6]; 19.2 µM (inactive) in test [7]; 26.5 µM (inactive) in [8]; > 100 µM (inactive) in [9]; 65.8 µM (inactive) in [10]; 40.6 µM (inactive) in [11]. The GI50 in [12] is 0.849 µM (active); in test [14], 51.1 µM (inactive); in test [15] it was 25.3 µM (inactive); in test [16], 32.6 µM (inactive); in test [17] it was 43.6 µM (inactive); in test [18], 51.3 µM (inactive).
Take `Cc1nc(Nc2nc3ccccc3[nH]2)nc(Cl)c1CCCl`: the GI50 in [19] was > 100 µM (inactive); in [2] it was greater than 100 µM; in [3], 95.7 µM (inactive); in [4], > 100 µM (inactive); in test [6], > 100 µM (inactive); in [8], > 100 µM (inactive). Moreover, the GI50 in [9], in test [10], in test [11], in test [12], in test [13] and in [14] was > 100 µM (inactive) each time. The GI50 in test [15], in test [16] and in [17] was > 100 µM (inactive) throughout.
With `NS(=O)(=O)c1ccc2c(c1)OCCOCCOCCOCCO2`, the GI50 in test [2] was greater than 100 µM; in test [3], > 100 µM (inactive); in test [20], > 100 µM (inactive); in test [4] it was > 100 µM (inactive); in test [5], > 100 µM (inactive); in [6], > 100 µM (inactive). For the same molecule, the GI50 in test [7], in test [8], in test [9], in test [10], in test [11] and in test [12] was > 100 µM (inactive) each time. Also, the GI50 in [13], in test [14], in test [15], in [16] and in test [17] was > 100 µM (inactive) throughout.
Consider `C[n+]1c(-c2ccc(/C=N/NC(=O)C(=O)N/N=C/c3ccc(-c4cn5ccsc5[n+]4C)cc3)cc2)cn2ccsc21`, for which the GI50 in test [19] was 47.8 µM (inactive); in test [2] it was greater than 100 µM; in test [3] it was > 100 µM (inactive); in test [5], > 100 µM (inactive); in test [6], > 100 µM (inactive); in [7], > 100 µM (inactive). Moreover, the GI50 was > 100 µM (inactive) in test [8]; 87.3 µM (inactive) in test [9]; > 100 µM (inactive) in test [10]; > 100 µM (inactive) in test [11]; > 100 µM (inactive) in [12]; > 100 µM (inactive) in [13]. For the same molecule, the GI50 in test [14], in [16], in test [17] and in [18] was > 100 µM (inactive) throughout.
As to `COC(=O)c1cccc(C)c1C1CN=NC12Cc1c(ccc(C)c1C)C2=O` (stereo not drawn), the GI50 in test [1] was 42.2 µM (inactive); in [19], 33.1 µM (inactive); in [2], 16.4 µM; in test [3], 61.8 µM (inactive); in test [20], > 100 µM (inactive); in test [4], 81.8 µM (inactive). For the same molecule, the GI50 in test [5] is 51.6 µM (inactive); in test [6] it was > 100 µM (inactive); in test [7], 32.5 µM (inactive); in test [8], 15.8 µM (inactive); in [9], 50 µM (inactive); in test [10], 23.6 µM (inactive). Further, the GI50 in [11] is > 100 µM (inactive); in test [12], 26.1 µM (inactive); in test [13] it was 26.7 µM (inactive); in test [15] it was 58.1 µM (inactive); in test [16], 7.14 µM (inactive); in test [17] it was 12.6 µM (inactive). Further, in [18], the GI50 was > 100 µM (inactive).
Turning to `Cc1cc2c(cc1Cl)SC(N/N=C(\N)c1ccc(Cl)cc1)=NS2(=O)=O`, the GI50 in [1] is 34.7 µM (inactive); in test [2], 46.5 µM; in test [3], 45.6 µM (inactive); in [20] it was 43 µM (inactive); in test [4], > 100 µM (inactive); in test [5], > 100 µM (inactive). The GI50 was > 100 µM (inactive) in [6]; 14.1 µM (inactive) in test [7]; 30.6 µM (inactive) in test [8]; 54.7 µM (inactive) in test [9]; 45.7 µM (inactive) in test [10]; 32.3 µM (inactive) in test [11]. Besides, the GI50 in test [12] is 43.3 µM (inactive); in [13], 76.6 µM (inactive); in [14], 41 µM (inactive); in test [15], 32.9 µM (inactive); in test [16] it was 72.9 µM (inactive); in [17] it was 40.5 µM (inactive). In test [18], the GI50 is > 100 µM (inactive).
